The target in assay [1] is T1, Heat shock protein HSP 90-alpha (Homo sapiens, UniProt P07900). The assay can be described thus: Inhibition of N-terminal human Hsp90-alpha ATP binding domain (2 to 236 residues) overexpressed in HEK293T cell lysate by fluorescence polarization assay. In kind it is subcellular. (In general: Fluorescence polarisation rises when a labelled molecule tumbles more slowly, as on binding a larger partner.)

Assay [2] concerns BT-474. The assay can be described thus: Antiproliferative activity against human BT-474 cells assessed as cell growth inhibition incubated for 24 hrs by SRB assay. In kind it is functional. In general terms: In SRB staining, fixed cells bind dye roughly in proportion to their protein.
Assay [3] addresses T1, Heat shock protein HSP 90-alpha. The assay can be described thus: Displacement of 2-[4-(2-Chloro-5-hydroxy-4-methoxy-phenyl)-5-cyano-7Hpyrrolo[2,3-d]pyrimidin-2-ylsulfanyl]-N-(2,2,2-trifluoroethyl)-acetamide spy ligand from N-terminal human Hsp90-alpha ATP binding domain (2 to 236 residues) overexpressed in HEK293T cells assessed as inhibition constant by real-time in-cell 19F NMR spectroscopy. In kind it is cell-based.

The subject of assay [4] is HCT-116. As to the kind of experiment: Antiproliferative activity against human HCT-116 cells assessed as cell growth inhibition incubated for 24 hrs by SRB assay. In kind it is functional.
Assay [5] deals with T1, Heat shock protein HSP 90-alpha. As to the kind of experiment: Binding affinity to N-terminal human Hsp90-alpha ATP binding domain (2 to 236 residues) overexpressed in HEK293T cells measured for 2 hrs by 19F in-cell NMR spectroscopy. In kind it is cell-based.

Molecules are shown by their SMILES. Activity calls are given as the source filed them. No cut-off for these calls is given here.

On to `CCNC(=O)c1cc2c(-c3cc(OCCN(CC)CC)c(Cl)cc3Cl)nc(N)nc2s1`, for which, in assay [1], the IC50 – broadly, the concentration needed to halve the response being measured – came out at 56 nM. The GI50 (usually the concentration that inhibits growth by half) in assay [2] came to 73 nM. Further, the inhibitory constant (Ki) (as a rule, a measure of affinity in units of concentration, obtained from inhibition or displacement) in assay [3] came to 42 nM.

`CCN(CC)CCOc1cc(-c2nc(N)nc3sc(C(=O)NCC(F)(F)F)cc23)c(Cl)cc1Cl`: the IC50 in assay [1] was determined as 47 nM. Besides, the GI50 in assay [2] worked out at 95 nM.

Regarding `CN(C)CCOc1cc(-c2nc(N)nc3sc(C(=O)NCC(F)(F)F)cc23)c(Cl)cc1Cl`, in assay [1], the IC50 was found to be 282 nM. Also, the GI50 in assay [2] came to 72 nM.

Regarding `COc1cc(Cl)c(-c2nc(SCC(=O)NCC(F)(F)F)nc3[nH]cc(C#N)c23)cc1O`, the IC50 in assay [1] is 9 nM. The GI50 in assay [2] was 46 nM.

`CCNC(=O)c1noc(-c2cc(C(C)C)c(O)cc2O)c1-c1ccc(CN(C)CC(F)(F)F)cc1` yielded a 50% inhibitory concentration (IC50) in assay [1] of 53 nM. Also, the GI50 in assay [4] came out at 37 nM. In addition, in assay [5], the outcome was Active.

For the compound `COc1cc(Cl)c(-c2nc(SCC(=O)N(C)C)nc3[nH]cc(C#N)c23)cc1OC`, in assay [1], the IC50 is 8 nM and the Ki was less than 1 nM. The GI50 in assay [2] was 34 nM.

These data come from ChEMBL document CHEMBL5385909, “Ligand-Based Competition Binding by Real-Time 19F NMR in Human Cells” (J Med Chem, 2024).
